Test results: patent publication US20230193562A1, “METHOD FOR CONTROLLING VOLATILE FATTY ACID CONTENT IN PULP, PAPER, AND/OR BOARD MAKING PROCESSES” (SOLENIS TECHNOLOGIES, L.P., priority 2021, published 2023)
Read-outs that look alike come from different tables or passages of the source.

Tested on: Microbial strains (5) isolated from paper mill water samples
Experiment: VFA reduction in TGE broth cultures of paper mill microbial isolates, VFA measured by GC-FID
Type: cell-based
Description: Equipment: A Gas Chromatograph (GC) equipped with a flame ionization detector (FID) (e.g. Agilent 6890N GC or equivalent) equipped with an autosampler is utilized with a Fused Silica Capillary Column (e.g. Agilent DB-WAX UI, 30 m×0.53 mm×1.0 μm).
Sample Preparation: An aliquot (0.5 mL) of a sample is taken from a shaken sample well via pipet and transferred into a glass vial with the standard diluent (4.5 mL). The glass vial is then capped and vortexed, and a portion of the contents transferred into a GC vial.
GC Standardization: The GC is standardized by injecting 2.0 μL of each working standard using the instrument parameters listed in Table 2 below. The areas for the standards are used to create a linear calibration curve in GC software (e.g. Agilent Chemstation or equivalent).
Quantitative Sample Analysis: Samples (2 μL injection volume) are analyzed against the working standards, with appropriate dilutions made to keep sample concentrations within the range of the standards. Peak areas of the samples are compared to the standard curves to determine the amounts of each VFA present in each sample via GC software (e.g. Agilent Chemstation or equivalent).
Calibration: A working standard (10 or 50 ppm, 2 μL) is injected at the beginning and end of each set of samples, and intermittently within long sequences of sampling, and the concentration determined and compared to the to the standard curve to maintain calibration (+/−5% of standard curve).
General Procedure: Microbial strains (5) are isolated from paper mill water samples onto individual petri plates. Overnight cultures are prepared by inoculating TGE Broth (10 mL) with a single colony from each petri plate (5 isolated strains=5 colonies per 10 mL overnight culture). Each culture is then incubated overnight at 35° C. with shaking. Portions (0.6 mL ea.) of each overnight culture are added to bottles with sterile TGE broth (29.4 mL) and the resulting mixtures are incubated with shaking at 35° C. After 2 hours (T=0), an initial sample from each bottles is taken and analyzed GC as described above. The samples are then dosed with a VFA Control Agent, capped, and incubated with shaking at 35° C. Aliquots of each sample are taken at various times post-dosage and analyzed via GC as described above, with each sample bottle capped and incubated between samplings along with an uninoculated control (sterile TGE broth) and an inoculated control (untreated). % VFA reduction is reported based on the relative VFA concentration (ppm) of a sample determined against the inoculated/untreated control.

[1] = single VFA Control Agent, ppm as per Example (25-500 ppm), 4 h post-dosage, 35° C., vs inoculated/untreated control
[2] = single VFA Control Agent at 50 or 100 ppm as per Example, 0.5 h post-dosage
[3] = single VFA Control Agent at 50 or 100 ppm as per Example, 2 h post-dosage
[4] = single VFA Control Agent at 50 or 100 ppm as per Example, 2.5 h post-dosage

## O=P1([O-])OP(=O)([O-])OP(=O)([O-])OP(=O)([O-])OP(=O)([O-])OP(=O)([O-])O1.[Na+].[Na+].[Na+].[Na+].[Na+].[Na+] [Example 3, Sodium hexametaphosphate]
[1]
  VFA Red. at 4 h (%): 0%

## O=P1([O-])OP(=O)([O-])OP(=O)([O-])OP(=O)([O-])OP(=O)([O-])OP(=O)([O-])O1.[Na+].[Na+].[Na+].[Na+].[Na+].[Na+] [Example 4, Sodium hexametaphosphate]
[1]
  VFA Red. at 4 h (%): 4%

## O=P(O)(O)CN(CCCCCCN(CP(=O)(O)O)CP(=O)(O)O)CCCCCCN(CP(=O)(O)O)CP(=O)(O)O [Example 5]
[1]
  VFA Red. at 4 h (%): 4%

## O=P(O)(O)CN(CCCCCCN(CP(=O)(O)O)CP(=O)(O)O)CCCCCCN(CP(=O)(O)O)CP(=O)(O)O [Example 6]
[1]
  VFA Red. at 4 h (%): 12%

## O=P(O)(O)CN(CCN(CP(=O)(O)O)CP(=O)(O)O)CCN(CP(=O)(O)O)CP(=O)(O)O [Example 7, Diethylenetriamine penta(methylene phosphonic acid)]
  VFA Red. at 4 h (%): 19%

## O=P(O)(O)CN(CCN(CP(=O)(O)O)CP(=O)(O)O)CCN(CP(=O)(O)O)CP(=O)(O)O [Example 8, Diethylenetriamine penta(methylene phosphonic acid)]
  VFA Red. at 4 h (%): 25%

## O=P(O)(O)CN(CCN(CP(=O)(O)O)CP(=O)(O)O)CCN(CP(=O)(O)O)CP(=O)(O)O [Example 24, Diethylenetriamine penta(methylene phosphonic acid)]
  VFA Red. at 0.5 h (%): 2.1%
  VFA Red. at 2 h (%): 6.4%
  VFA Red. at 2.5 h (%): 8.2%

## O=P(O)(O)CN(CCN(CP(=O)(O)O)CP(=O)(O)O)CCN(CP(=O)(O)O)CP(=O)(O)O [Example 25, Diethylenetriamine penta(methylene phosphonic acid)]
  VFA Red. at 0.5 h (%): 8.3%
  VFA Red. at 2 h (%): 12.5%
  VFA Red. at 2.5 h (%): 9.1%

## O=S([O-])O.[Na+] [Example 28, Sodium bisulfite]
[2]
  VFA Red. at 0.5 h (%): 3.1%
[3]
  VFA Red. at 2 h (%): 0.0%
[4]
  VFA Red. at 2.5 h (%): 6.9%

## O=S([O-])O.[Na+] [Example 29, Sodium bisulfite]
[2]
  VFA Red. at 0.5 h (%): 1.0%
[3]
  VFA Red. at 2 h (%): 14.6%
[4]
  VFA Red. at 2.5 h (%): 25.5%

## Diethylenetriamine penta(methylene phosphonic acid) sodium salt [Example 26]
Sodium salt
  VFA Red. at 0.5 h (%): 3.1%
  VFA Red. at 2 h (%): 6.4%
  VFA Red. at 2.5 h (%): 9.1%

## Diethylenetriamine penta(methylene phosphonic acid) sodium salt [Example 27]
Sodium salt
  VFA Red. at 0.5 h (%): 4.2%
  VFA Red. at 2 h (%): 7.9%
  VFA Red. at 2.5 h (%): 6.9%

## Polyamino polyether methylene phosphonic acid [Example 9]
[1]
  VFA Red. at 4 h (%): 5%

## Polyamino polyether methylene phosphonic acid [Example 10]
[1]
  VFA Red. at 4 h (%): 10%
